Target: T1, human Bradykinin B1 receptor (Homo sapiens, UniProt P46663)
T1 construct: host or cells: CHO-K1
T1 sequence (P46663 1-353): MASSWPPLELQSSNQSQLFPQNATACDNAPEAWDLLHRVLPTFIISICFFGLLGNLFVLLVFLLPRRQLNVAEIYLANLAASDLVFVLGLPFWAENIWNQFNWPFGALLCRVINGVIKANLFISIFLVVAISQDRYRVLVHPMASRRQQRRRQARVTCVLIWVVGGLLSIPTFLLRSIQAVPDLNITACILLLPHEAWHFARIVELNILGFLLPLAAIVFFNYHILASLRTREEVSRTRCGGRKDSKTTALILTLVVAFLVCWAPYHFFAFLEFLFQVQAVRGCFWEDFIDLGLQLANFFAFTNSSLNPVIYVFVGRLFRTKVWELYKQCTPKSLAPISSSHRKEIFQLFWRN
Assay: Calcium flux Assay (FLIPR) with recombinant CHO-K1 cells expressing human Bradykinin B1 receptor, in presence (hB1 IC50) or absence (hB1 free IC50) of 0.1% BSA
Format: cell-based
Conditions: in absence of 0.1% BSA, read-out: hB1 free IC50

Structure (SMILES) | IC50
COc1ccc(-c2ccc(NC(=O)C3(c4cccc(Cl)c4)CC3)cc2-c2nnn[nH]2)cc1C(F)(F)F [Example 132, 1-(3-chlorophenyl)-N-[4′-methoxy-2-(1H-tetrazol-5-yl)-3′-(trifluoromethyl)biphenyl-4-yl]cyclopropane carboxamide] | 234 nM
COc1cc(-c2ccc(NC(=O)C3(c4cccc(Cl)c4)CC3)cc2-c2nnn[nH]2)cc(C(F)(F)F)c1 [Example 134, 1-(3-chlorophenyl)-N-[3′-methoxy-2-(1H-tetrazol-5-yl)-5′-(trifluoromethyl)biphenyl-4-yl]cyclopropane carboxamide] | 572 nM
O=C(Nc1ccc(-c2ccc(C(F)(F)F)nc2)c(-c2nnn[nH]2)c1)C1(c2ccc(F)cn2)CC1 [Example 145, 1-(5-fluoropyridin-2-yl)-N-{3-(1H-tetrazol-5-yl)-4-[6-(trifluoromethyl)pyridin-3-yl]phenyl} cyclopropane-carboxamide] | 194 nM
COc1cc(-c2ccc(NC(=O)C3(c4cccc(Cl)c4)CC3)cc2-c2nnn[nH]2)cnc1C(F)(F)F [Example 146, 1-(3-chlorophenyl)-N-{4-[5-methoxy-6-(trifluoromethyl)pyridin-3-yl]-3-(1H-tetrazol-5-yl)phenyl} cyclopropane-carboxamide] | 100 nM
CCOc1cc(-c2ccc(NC(=O)C3(c4cccc(Cl)c4)CC3)cc2-c2nnn[nH]2)cc(C(F)(F)F)n1 [Example 166, 1-(3-chlorophenyl)-N-{4-[2-ethoxy-6-(trifluoromethyl)pyridin-4-yl]-3-(1H-tetrazol-5-yl)phenyl} cyclopropane-carboxamide] | 1130 nM
O=C(Nc1ccc(-c2ccnc(C(F)F)c2)c(-c2nnn[nH]2)c1)C1(c2cccc(Cl)c2)CC1 [Example 170, 1-(3-chlorophenyl)-N-{4-[2-(difluoromethyl)pyridin-4-yl]-3-(1H-tetrazol-5-yl)phenyl} cyclopropane-carboxamide] | 968 nM

Results, then the compound that gave them:

IC50 | Structure (SMILES)
53 nM | COc1ccc(-c2ccc(NC(=O)C3(c4ccc(C(F)(F)F)cc4F)CC3)cc2-c2nnn[nH]2)cc1C(F)(F)F [Example 131, 1-[2-fluoro-4-(trifluoromethyl)phenyl]-N-[4′-methoxy-2-(1H-tetrazol-5-yl)-3′-(trifluoromethyl)biphenyl-4-yl]cyclopropane carboxamide]
217 nM | COc1cc(-c2ccc(NC(=O)C3(c4ccc(C(F)(F)F)cc4F)CC3)cc2-c2nnn[nH]2)cc(C(F)(F)F)c1 [Example 133, 1-[2-fluoro-4-(trifluoromethyl)phenyl]-N-[3′-methoxy-2-(1H-tetrazol-5-yl)-5′-(trifluoromethyl)biphenyl-4-yl]cyclopropane carboxamide]
201 nM | O=C(Nc1ccc(-c2ccc(C(F)(F)F)nc2)c(-c2nnn[nH]2)c1)C1(c2ccc(F)cc2F)CC1 [Example 142, 1-(2,4-difluorophenyl)-N-{3-(1H-tetrazol-5-yl)-4-[6-(trifluoromethyl)pyridin-3-yl]phenyl} cyclopropane-carboxamide]
144 nM | O=C(Nc1ccc(-c2ccc(C(F)(F)F)nc2)c(-c2nnn[nH]2)c1)C1(c2cc(F)c(F)cc2F)CC1 [Example 143, N-{3-(1H-tetrazol-5-yl)-4-[6-(trifluoromethyl)pyridin-3-yl]phenyl}-1-(2,4,5-trifluorophenyl) cyclopropane-carboxamide]
40.3 nM | CCOc1ncc(-c2ccc(NC(=O)C3(c4cccc(Cl)c4F)CC3)cc2-c2nnn[nH]2)cc1C(F)(F)F [Example 159, 1-(3-chloro-2-fluorophenyl)-N-{4-[6-ethoxy-5-(trifluoromethyl)pyridin-3-yl]-3-(1H-tetrazol-5-yl)phenyl} cyclopropane-carboxamide]
634 nM | O=C(Nc1ccc(-c2cc(F)ncc2F)c(-c2nnn[nH]2)c1)C1(c2ccc(C(F)(F)F)cc2F)CC1 [Example 167, N-[4-(2,5-difluoropyridin-4-yl)-3-(1H-tetrazol-5-yl)phenyl]-1-[2-fluoro-4-(trifluoromethyl)phenyl] cyclopropane-carboxamide]
433 nM | O=C(Nc1ccc(-c2ccnc(C(F)(F)F)c2)c(-c2nnn[nH]2)c1)C1(c2cccc(Cl)c2F)CC1 [Example 172, 1-(3-chloro-2-fluorophenyl)-N-{3-(1H-tetrazol-5-yl)-4-[2-(trifluoromethyl)pyridin-4-yl]phenyl} cyclopropane-carboxamide]
1110 nM | O=C(Nc1ccc(-c2ccnc(C(F)(F)F)c2)c(-c2nnn[nH]2)c1)C1(c2ccc(F)cn2)CC1 [Example 174, 1-(5-fluoropyridin-2-yl)-N-{3-(1H-tetrazol-5-yl)-4-[2-(trifluoromethyl)pyridin-4-yl]phenyl} cyclopropane-carboxamide]
258 nM | O=C(Nc1ccc(-c2ccnc(C(F)(F)F)c2)c(-c2nnn[nH]2)c1)C1(c2ccc(F)c(Cl)c2)CC1 [Example 176, 1-(3-chloro-4-fluorophenyl)-N-{3-(1H-tetrazol-5-yl)-4-[2-(trifluoromethyl)pyridin-4-yl]phenyl} cyclopropane-carboxamide]
274 nM | O=C(Nc1ccc(-c2ccnc(C(F)(F)F)c2)c(-c2nnn[nH]2)c1)C1(c2ccc(Cl)c(F)c2)CC1 [Example 177, 1-(4-chloro-3-fluorophenyl)-N-{3-(1H-tetrazol-5-yl)-4-[2-(trifluoromethyl)pyridin-4-yl]phenyl} cyclopropane-carboxamide]
287 nM | O=C(Nc1ccc(-c2ccnc(C(F)(F)F)c2)c(-c2nnn[nH]2)c1)C1(c2ccc(F)cc2F)CC1 [Example 178, 1-(2,4-difluorophenyl)-N-{3-(1H-tetrazol-5-yl)-4-[2-(trifluoromethyl)pyridin-4-yl]phenyl} cyclopropane-carboxamide]
393 nM | O=C(Nc1ccc(-c2ccnc(C(F)(F)F)c2)c(-c2nnn[nH]2)c1)C1(c2cc(F)ccc2F)CC1 [Example 179]

Same assay, conditions: in presence of 0.1% BSA, read-out: hB1 IC50

Structure (SMILES) | IC50
COc1cncc(-c2ccc(NC(=O)C3(c4cccc(C)c4)CC3)cc2-c2nnn[nH]2)c1 [Example 151, N-[4(5-methoxypyridin-3-yl)-3-(1H-tetrazol-5-yl)phenyl]-1-(3-methylphenyl) cyclopropane-carboxamide] | 127 nM
COc1cncc(-c2ccc(NC(=O)C3(c4cccc(C(F)(F)F)c4)CC3)cc2-c2nnn[nH]2)c1 [Example 152, N-[4-(5-methoxypyridin-3-yl)-3-(1H-tetrazol-5-yl)phenyl]-1-[3-(trifluoromethyl)phenyl] cyclopropane-carboxamide] | 23.5 nM
COc1cncc(-c2ccc(NC(=O)C3(c4ccc(C(F)(F)F)cc4)CC3)cc2-c2nnn[nH]2)c1 [Example 154, N-[4-(5-methoxypyridin-3-yl)-3-(1H-tetrazol-5-yl)phenyl]-1-[4-(trifluoromethyl)phenyl] cyclopropane-carboxamide] | 27.1 nM
CCOc1cncc(-c2ccc(NC(=O)C3(c4cccc(C(F)(F)F)c4)CC3)cc2-c2nnn[nH]2)c1 [Example 155, N-[4-(5-ethoxypyridin-3-yl)-3-(1H-tetrazol-5-yl)phenyl]-1-[3-(trifluoromethyl)phenyl] cyclopropane-carboxamide] | 220 nM
CCOc1ncc(-c2ccc(NC(=O)C3(c4cccc(Cl)c4)CC3)cc2-c2nnn[nH]2)cc1C(F)(F)F [Example 158, 1-(3-chlorophenyl)-N-{4-[6-ethoxy-5-(trifluoromethyl)pyridin-3-yl]-3-(1H-tetrazol-5-yl)phenyl} cyclopropane-carboxamide] | 764 nM
CCOc1ncc(-c2ccc(NC(=O)C3(c4ccc(C(F)(F)F)cc4)CC3)cc2-c2nnn[nH]2)cc1C [Example 161, N-[4-(6-ethoxy-5-methylpyridin-3-yl)-3-(1H-tetrazol-5-yl)phenyl]-1-[4-(trifluoromethyl)phenyl] cyclopropane-carboxamide] | 24.9 nM
CCOc1cc(-c2ccc(NC(=O)C3(c4cccc(Cl)c4)CC3)cc2-c2nnn[nH]2)cc(C(F)(F)F)n1 [Example 166, 1-(3-chlorophenyl)-N-{4-[2-ethoxy-6-(trifluoromethyl)pyridin-4-yl]-3-(1H-tetrazol-5-yl)phenyl} cyclopropane-carboxamide] | 2160 nM
CN(C)c1ccc(-c2ccc(NC(=O)C3(c4cccc(Cl)c4)CC3)cc2-c2nnn[nH]2)cn1 [Example 169, 1-(3-chlorophenyl)-N-{4-[6-(dimethylamino)pyridin-3-yl]-3-(1H-tetrazol-5-yl)phenyl} cyclopropane-carboxamide] | 117 nM

The next lines start with the values.

IC50 | Structure (SMILES)
39.2 nM | COc1cncc(-c2ccc(NC(=O)C3(c4ccc(F)cc4F)CC3)cc2-c2nnn[nH]2)c1 [Example 150, 1-(2,4-difluorophenyl)-N-[4-(5-methoxypyridin-3-yl)-3-(1H-tetrazol-5-yl)phenyl] cyclopropane-carboxamide]
140 nM | CCOc1cncc(-c2ccc(NC(=O)C3(c4ccc(F)cc4F)CC3)cc2-c2nnn[nH]2)c1 [Example 157, 1-(2,4-difluorophenyl)-N-[4-(5-ethoxypyridin-3-yl)-3-(1H-tetrazol-5-yl)phenyl] cyclopropane-carboxamide]
585 nM | CCOc1ncc(-c2ccc(NC(=O)C3(c4cccc(Cl)c4F)CC3)cc2-c2nnn[nH]2)cc1C(F)(F)F [Example 159, 1-(3-chloro-2-fluorophenyl)-N-{4-[6-ethoxy-5-(trifluoromethyl)pyridin-3-yl]-3-(1H-tetrazol-5-yl)phenyl} cyclopropane-carboxamide]
59 nM | CCOc1ncc(-c2ccc(NC(=O)C3(c4ccc(F)cc4F)CC3)cc2-c2nnn[nH]2)cc1C [Example 162, 1-(2,4-difluorophenyl)-N-[4-(6-ethoxy-5-methylpyridin-3-yl)-3-(1H-tetrazol-5-yl)phenyl] cyclopropane-carboxamide]
14.5 nM | CCOc1ncc(-c2ccc(NC(=O)C3(c4ccc(C(F)(F)F)cc4)CC3)cc2-c2nnn[nH]2)cc1F [Example 164, N-[4-(6-ethoxy-5-fluoropyridin-3-yl)-3-(1H-tetrazol-5-yl)phenyl]-1-[4-(trifluoromethyl)phenyl] cyclopropane-carboxamide]
64.1 nM | CCOc1ncc(-c2ccc(NC(=O)C3(c4ccc(F)cc4F)CC3)cc2-c2nnn[nH]2)cc1F [Example 165, 1-(2,4-difluorophenyl)-N-[4-(6-ethoxy-5-fluoropyridin-3-yl)-3-(1H-tetrazol-5-yl)phenyl] cyclopropane-carboxamide]
347 nM | O=C(Nc1ccc(-c2ccnc(C(F)(F)F)c2)c(-c2nnn[nH]2)c1)C1(c2cccc(Cl)c2F)CC1 [Example 172, 1-(3-chloro-2-fluorophenyl)-N-{3-(1H-tetrazol-5-yl)-4-[2-(trifluoromethyl)pyridin-4-yl]phenyl} cyclopropane-carboxamide]

From patent publication US20210317092A1 (BAYER PHARMA AKTIENGESELLSCHAFT, priority 2016, published 2021)
